Reference: US11051515B2, “3-acyl-benzamides and their use as herbicides” (Bayer Aktiengesellschaft, priority 2017, dated 2021)

Columns and labels:
DIGSA = assay: Pre-emergence action against DIGSA; format: in vivo, Digitaria sanguinalis; settings: dosage 320 g/ha, scored visually after 3 weeks vs untreated controls
Excerpt: Seeds of monocotyledonous and dicotyledonous weed plants and crop plants are laid out in sandy loam soil in wood-fiber pots and covered with soil. The compounds of the invention, formulated in the form of wettable powders (WP) or as emulsion concentrates (EC), are then applied to the surface of the covering soil in the form of an aqueous suspension or emulsion at a water application rate equating to […], with addition of 0.2% wetting agent. After the treatment, the pots are placed in a greenhouse and kept under good growth conditions for the trial plants. The damage to the test plants is scored visually after a test period of 3 weeks by comparison with untreated controls (herbicidal activity in percent (%): 100% activity=the plants have died, 0% activity=like control plants).

ECHCG [1] = assay: Pre-emergence action against ECHCG; format: in vivo, Echinochloa crus-galli; settings: pre-emergence, dosage 320 g/ha, scored visually after 3 weeks vs untreated controls
Procedure, shortened: (§1)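 Seeds sown in sandy loam in wood-fiber pots and covered with soil. Greenhouse growth; visual damage scored after 3 weeks versus untreated controls (100% = dead, 0% = like control).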

ABUTH [2] = assay: Pre-emergence action against ABUTH; format: in vivo, Abutilon theophrasti; settings: pre-emergence, dosage 320 g/ha, scored visually after 3 weeks vs untreated controls
Procedure, shortened: as §1

AMARE [3] = assay: Pre-emergence action against AMARE; format: in vivo, Amaranthus retroflexus; settings: pre-emergence, dosage 320 g/ha, scored visually after 3 weeks vs untreated controls
Procedure, shortened: as §1

VIOTR [4] = assay: Pre-emergence action against VIOTR; format: in vivo, Viola tricolor; settings: Dosage 320 g/ha, pre-emergence
Procedure, shortened: as §1

VERPE = assay: Pre-emergence action against VERPE; format: in vivo, Veronica persica; settings: Dosage 320 g/ha, pre-emergence
Procedure, shortened: as §1

AVEFA = assay: Post-emergence action against AVEFA; format: in vivo, Avena fatua; settings: post-emergence, dosage 80 g/ha, visual assessment about 3 weeks after treatment vs untreated controls
Procedure, shortened: (§2)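 Weeds grown in sandy loam in greenhouse, treated at one-leaf stage (2–3 weeks after sowing) with WP or EC formulations sprayed as aqueous suspension/emulsion at 600 to […] water with 0.2% wetting agent. Visual rating after about 3 weeks versus untreated controls, as % herbicidal action (100% = plants dead, 0% = like control).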

ECHCG [5] = assay: Post-emergence action against ECHCG; format: in vivo, Echinochloa crus-galli; settings: post-emergence, dosage 80 g/ha, visual assessment about 3 weeks after treatment vs untreated controls
Procedure, shortened: as §2

ABUTH [6] = assay: Post-emergence action against ABUTH; format: in vivo, Abutilon theophrasti; settings: post-emergence, dosage 80 g/ha, visual assessment about 3 weeks after treatment vs untreated controls
Procedure, shortened: as §2

AMARE [7] = assay: Post-emergence action against AMARE; format: in vivo, Amaranthus retroflexus; settings: post-emergence, dosage 80 g/ha, visual assessment about 3 weeks after treatment vs untreated controls
Procedure, shortened: as §2

PHBPU [8] = assay: Post-emergence action against PHBPU; format: in vivo, Pharbitis purpurea; settings: post-emergence, dosage 80 g/ha
Procedure, shortened: as §2

VIOTR [9] = assay: Post-emergence action against VIOTR; format: in vivo, Viola tricolor; settings: post-emergence, dosage 80 g/ha
Procedure, shortened: as §2

MATIN [10] = assay: Pre-emergence action against MATIN; format: in vivo, Matricaria inodora; settings: Dosage 320 g/ha, pre-emergence
Procedure, shortened: as §1

STEME [11] = assay: Pre-emergence action against STEME; format: in vivo, Stellaria media; settings: Dosage 320 g/ha, pre-emergence
Procedure, shortened: as §1

SETVI = assay: Pre-emergence action against SETVI; format: in vivo, Setaria viridis; settings: pre-emergence, dosage 320 g/ha, scored visually after 3 weeks vs untreated controls
Procedure, shortened: as §1

PHBPU [12] = assay: Pre-emergence action against PHBPU; format: in vivo, Pharbitis purpurea; settings: Dosage 320 g/ha, pre-emergence
Procedure, shortened: as §1

MATIN [13] = assay: Post-emergence action against MATIN; format: in vivo, Matricaria inodora; settings: post-emergence, dosage 80 g/ha, visual assessment about 3 weeks after treatment vs untreated controls
Procedure, shortened: as §2

STEME [14] = assay: Post-emergence action against STEME; format: in vivo, Stellaria media; settings: post-emergence, dosage 80 g/ha
Procedure, shortened: as §2

SMILES	Pre-emergence action against DIGSA (herbicidal activity) (DIGSA) [%]	Pre-emergence action against ECHCG (herbicidal activity) (ECHCG [1]) [%]	Pre-emergence action against ABUTH (herbicidal activity) (ABUTH [2]) [%]	Pre-emergence action against AMARE (herbicidal activity) (AMARE [3]) [%]	Pre-emergence action against VIOTR (VIOTR [4]) [%]	Pre-emergence action against VERPE (VERPE) [%]	Post-emergence action against AVEFA (herbicidal action in percent) (AVEFA) [%]	Post-emergence action against ECHCG (herbicidal action in percent) (ECHCG [5]) [%]	Post-emergence action against ABUTH (herbicidal action in percent) (ABUTH [6]) [%]	Post-emergence action against AMARE (herbicidal action in percent) (AMARE [7]) [%]	Post-emergence action against PHBPU (PHBPU [8])	Post-emergence action against VIOTR (VIOTR [9])	Pre-emergence action against MATIN (MATIN [10]) [%]	Pre-emergence action against STEME (STEME [11]) [%]	SETVI (Table B8, pre-emergence herbicidal activity) (SETVI) [%]	Pre-emergence action against PHBPU (PHBPU [12]) [%]	Post-emergence action against MATIN (herbicidal action in percent) (MATIN [13]) [%]	Post-emergence action against STEME (STEME [14])
Cn1nnnc1NC(=O)c1ccc(C(F)(F)F)c(C(=O)c2cc(F)cc(F)c2)c1Cl [1-287]	80	80	100	100	100	100	80	90	80	90	90	90						
CCn1nnnc1NC(=O)c1ccc(C(F)(F)F)c(C(=O)C2CCCCC2)c1Cl [2-155]	90	80	100	100	100	80				80			100	100				
CCCn1nnnc1NC(=O)c1ccc(C(F)(F)F)c(C(=O)C(F)F)c1Cl [3-163]	100		100	100	100			80	80	100	90	80	100	90	100	80	90	100
CCCn1nnnc1NC(=O)c1ccc(C(F)(F)F)c(C(=O)C2CCCCC2)c1SC [3-281]	80		100	80	100					80				90				
